According to patent publication US20220227815A1, “COMPOSITIONS AND METHODS USEFUL IN TREATING BRAIN DISEASES” (University of Kansas, priority 2019, published 2022):
Entries after “also recorded” stand apart in the source; their conditions may differ. Positions of bridges follow the written chain, without caps; N, C: chain ends. Non-standard residues stand in square brackets, D forms with d. Residues, ends and D or L forms follow the SMILES beside them. ξ: configuration not given here. Thr(3ξ) = CC(O)[C@H](N)C(=O)O

How the values were obtained:
[1] = system: blood-brain barrier (BBB); assay: In vivo brain delivery of IRdye800CW-IgG mAb, NIRF quantification in brain homogenates; conditions: C57BL/6 mice
Experimental: The activity of each peptide in enhancing blood-brain barrier (BBB) penetration was evaluated by delivering IRdye800CW donkey anti-goat IgG mAb in C57BL/6 mice; the amounts of mAb in the brain were determined using NIRF imaging. Each group contained 3 mice per group (n=3) with a mixture of male and female mice, selected randomly for each arm of the study. The injection solution was prepared by adding 600 μL PBS into 0.5 mg lyophilized IgG mAb; then, approximately 1.5 mg lyophilized peptide was added into the mixture yielding the injectable formulation. A 100 μL solution of a mixture containing IgG mAb (21.6 nmol/kg) along with 13 μmol/kg peptide of the present technology was administered via tail vein. As a control, 100 μL of IgG mAb alone was administered via i.v. route. After the delivered molecules had been circulating for 15 min, the mice were sacrificed; then, a mixture of PBS with 0.5% Tween20 was administered for cardiac perfusion to remove the blood and […] molecules into the brain microvessels. The brain and other organs such as lung, heart, spleen, liver, and kidney were harvested and rinsed with PBS. The isolated organs were scanned with Odyssey® CLx for mAb quantification.
The brain deposition of IgG mAb was also quantified by NIRF imaging in brain homogenates. The isolated brains were mechanically homogenized in 2.0 mL of PBS. To make the standard solutions, IRDye800CW IgG mAb stock solution (70 μg/mL) was prepared; it was then diluted with various amounts of PBS to make six different mAb concentrations. To generate a calibration curve, the brain homogenate (200 μL) was aliquoted out to a 96-well plate. 10 μL of each concentration of IgG mAb was added to three different wells of blank brain homogenates. The standard spiked homogenates were at a range of 10-200 ng/mL IgG mAb in brain homogenate. The wells were scanned using the Odyssey® CLx scanner, and the signal intensities vs. concentrations of mAb per gram of brain were used to generate a calibration curve.
(§1) The BBB modulatory activities of ADTC5 and HAV6 to enhance brain delivery of IRdyeR800CW-labeled lysozyme, albumin, IgG mAb, and fibronectin were compared in C57BL/6 mice. The proteins with or without 13 μmol/kg HAV6 or ADTC5 were administered via tail vein injection. For lysozyme, the delivered doses were 21.6 and 54 nmol/kg. For albumin, IgG mAb, and fibronectin, the dose used was 21.6 nmol/kg. Fifteen minutes after IgG mAb administration with or without a peptide of the present technology, the animals were sacrificed and PBS with 0.5% Tween-20 was administered for cardiac perfusion to remove the remaining protein in the BBB microvessels. The brain and other organs such as lung, heart, spleen, liver and kidney were harvested and rinsed with PBS. Protein depositions in the brain and other organs were quantified by NIRF imaging using an Odyssey CLx NIRF scanner.
(§2) A second quantification method was done using brain homogenates. In this case, the brains were homogenized in 2.0 mL PBS by mechanical disruption and 200 μL of homogenized brain (n=8) was aliquoted to a 96-well plate followed by quantification using the Odyssey CLx scanner. The signal intensity was compared to calibration curve and normalized to brain weight and homogenate volume.

[2] = system: SJL/elite EAE mice; assay: Suppression of EAE relapse, clinical scores; format: in vivo; conditions: BDNF 5.71 nmol/kg and/or ADTC5 10 μmol/kg i.v.
Experimental: EAE Mouse Model: EAE disease in animals (5-8-week-old SJL/elite female mice, Charles River) was stimulated by injecting 200 μg of PLP139-151 peptide in a 0.2 mL emulsion containing equal volumes of PBS and complete Freund's adjuvant (CFA) with killed mycobacterium tuberculosis strain H37RA (Difco, Detroit, Mich.; final concentration 4 mg/mL) as described in Kobayashi, N.; Kiptoo, P.; Kobayashi, H.; Ridwan, R.; Brocke, S.; Siahaan, T. J. Prophylactic and therapeutic suppression of experimental autoimmune encephalomyelitis by a novel bifunctional peptide inhibitor. Clin Immunol 2008, 129, (1), 69-79 and Kobayashi, N.; Kobayashi, H.; Gu, L.; Malefyt, T.; Siahaan, T. J. Antigen-specific suppression of experimental autoimmune encephalomyelitis by a novel bifunctional peptide inhibitor. J Pharmacol Exp Ther 2007, 322, (2), 879-86. Briefly, […] of PLP/CFA emulsion was administered to four different regions above the shoulders and the flanks on Day 0 followed by intraperitoneal injection of 200 ng of pertussis toxin (List Biological Laboratories, Campbell, Calif.) on Days 0 and 2. Clinical scores that reflect the disease progression were determined using an 11-point scale with 0.5 increments ranging from 0 to 5; 0 being no apparent disease and 5 being moribund. On Day 21, mice were randomly separated into […]: (i) BDNF (5.7 nmol/kg)+ADTC5 (10 μmol/kg; n=7), (ii) BDNF alone (5.71 nmol/kg, n=6), (iii) ADTC5 alone (10 μmol/kg; n=5), and (iv) vehicle (n=5). All mice received 8 intravenous injections every 4 days beginning on Day 21. The mice were euthanized via CO2 inhalation on Day 55. Area under the curve (AUC) calculations were used to compare clinical scores across groups; AUC calculations were performed using the trapezoid rule from Days 21 to 55.

[3] = system: blood-brain barrier (BBB); assay: Brain delivery of IRdye800CW-IgG mAb in SJL/elite mice, whole brain NIRF imaging; format: in vivo; conditions: IgG mAb 26.8 nmol/kg i.v. alone (n=4) or with ADTC5 13 μmol/kg (n=5), 15 min
Experimental: Brain Delivery IRdye800CW-labeled IgG mAb using ADTC5 in SJL/elite Mice. For initial evaluation of whether ADTC5 can deliver proteins into the brain, IRdye800CW donkey-anti-goat IgG mAb was administered via i.v. with and without ADTC5 peptide in 5-8-week-old SJL/elite mice. Two groups of healthy SJL/elite mice were injected with (a) a mixture of IgG mAb (26.8 nmol/kg) and ADTC5 peptide (13 μmol/kg) (n=5) and (b) IgG mAb alone (26.8 nmol/kg) (n=4). After 15 min in the systemic circulation, the mice were euthanized using CO2 inhalation followed by brain perfusion using PBS to remove the remaining protein in the BBB microvasculature. Next, the brains were isolated followed by NIRF imaging using Licor Odyssey CLx (Licor, Lincoln, Nebr.). Eight optical sections were taken at 0.5 mm increments beginning from the bottom surface of the brain to a depth of 4 mm. The optical sections were summed to yield a fluorescence intensity value per each brain.

[4] = system: blood-brain barrier (BBB); assay: In vivo brain delivery of IRdye800CW-lysozyme (15 kDa); parameters: species or system C57BL/6 mice
Experimental: Preparation of Stock and Standard Curves. The stock solution for IRDye800CW protein (i.e., lysozyme, 70 μg/mL) was prepared and stored at −80° C. The stock solution was later diluted with PBS to make the required standard solutions. To produce a standard calibration curve, 200 μL of blank brain homogenates was spiked with 10 μL standard solutions of various concentrations to yield a linear range from 0.5 to 50 ng/mL. The same method was employed for the sample's quality control (QC).
as §1, §2
(§3) Brain Perfusion. After euthanasia using CO2 chamber, mice were immediately subjected to cervical dislocation followed by removal of IRdye800CW-labeled protein from the brain capillaries using perfusion solution. In this case, a solution containing PBS with 0.2% Tween-20 was transcardially perfused to remove the remaining protein molecules in the brain endothelial microvessels. After perfusion, the brain was removed from the skull and subjected to capillary depletion.

[5] = system: blood-brain barrier (BBB); assay: In vivo brain delivery of IRdye800CW-albumin (65 kDa); conditions: IRdye800CW-albumin 21.6 nmol/kg i.v. alone or with 13 μmol/kg peptide; C57BL/6 mice
Experimental: as §1, §2, §3

[6] = system: blood-brain barrier (BBB); assay: In vivo brain delivery of IRdye800CW-fibronectin (220 kDa); parameters: species or system C57BL/6 mice
Experimental: as §1, §2, §3

[7] = IgG mAb 21.6 nmol/kg + 13 μmol/kg peptide i.v.

## CC(=O)N[C@H]1CSSC[C@@H](C(N)=O)NC(=O)[C@H](C(C)C)NC(=O)[C@@H]2CCCN2C(=O)[C@@H]2CCCN2C(=O)[C@H](C(C)O)NC(=O)[C@H](CC(=O)O)NC1=O (some centres unmarked) [ADTC5, cyclo(1,7)acetyl-CDTPPVC-NH2] (Ac-CD[Thr(3ξ)]PPVC-NH2; disulfide 1-7)
[1]; IRdye800CW-IgG mAb 21.6 nmol/kg i.v. alone or with 13 μmol/kg peptide, 15 min circulation, n=3
  average amount of IgG mAb in the brain: 13.3±0.7 pmol/g brain
[1]; [7]
  brain delivery of IgG mAb compared to control (IgG mAb alone): significantly better than in the PBS control; also recorded: significant difference
  enhancement of mAb brain deposition relative to control: about three times that of control
[2]; 8 injections
  locomotion / paralysis observed: partial or full hind leg paralysis and full tail paralysis
[2]; 8 injections every 4 days from day 21, compared with other groups/vehicle
  EAE clinical body scores: no significant difference
[3]
  whole brain NIRF signal of IRDye800CW-IgG mAb: significantly higher signal intensity
[4]; IRdye800CW-lysozyme 54 nmol/kg i.v. alone or with 13 μmol/kg peptide, C57BL/6 mice
  amount of lysozyme in the brain: 37.8±7.1 pmol/g brain
[4]; lysozyme 21.6 nmol/kg with 13 μmol/kg peptide
  brain delivery of lysozyme compared to lysozyme alone: no significant improvement
[5]
  amount of albumin in the brain: 40.7±7.4 pmol/g brain
[6]; IRdye800CW-fibronectin 21.6 nmol/kg i.v. alone or with ADTC5 13 μmol/kg
  NIRF signal of fibronectin in brain homogenates: 35.498±3.001 ×10^3 A.U.
[6]; fibronectin 21.6 nmol/kg with ADTC5 13 μmol/kg vs fibronectin alone
  brain delivery of 220 kDa fibronectin: did not enhance
